Measurements: US11786503B2, “Pharmaceutical compositions and methods for countering chemotherapy induced cardiotoxicity” (Auransa Inc., priority 2016, dated 2023)
Where two headings read alike, the source gives them in different places.

Key:
TOPOIIβ = molecular target: T1, TOPOIIβ (Homo sapiens, UniProt Q02880); assay: kDNA decatenation assay, TOPOIIβ; type: biochemical; settings: for TOPOIIβ inhibition, in words: decatenation assay;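 as to all read-outs here: kinetoplast DNA incubated with one unit of TOPOIIβ at 37 °C for 30 min, decatenated product resolved on 1% agarose gel, inhibition scored from relative band intensity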
T1 construct: purchased Inspiralis

TOPOIIα = molecular target: T2, TOPOIIα (Homo sapiens, UniProt P11388); assay: kDNA decatenation assay, TOPOIIα; type: biochemical; settings: for TOPOIIα inhibition, in words: decatenation assay;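 as to all read-outs here: kDNA incubated with one unit of TOPOIIα at 37 °C for 30 min, decatenated product resolved on 1% agarose gel, inhibition from relative band intensity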
T2 construct: purchased Inspiralis

[1] = system: Doxorubicin treated human iPSC-derived cardiomyocytes; assay: iPSC-CM protection by myricetin analogs (Table 1); type: cell-based; settings: for cardioprotection, in words: Table 1
cardiomyocytes = assay: cytotoxicity of myricetin analogs to cardiomyocytes (Table 1, Toxicity); settings: for Toxicity: * = cytotoxicity at 100 μM; for cytotoxicity, in words: at 100 μM where stated; for cytotoxicity, in words / toxic effects at concentrations less than 100 μM: Table 1
[2] = system: Cardiomyocytes (human iPSC-derived); assay: doxorubicin-induced apoptosis, CellEvent dye, 3 days (Example 4); type: cell-based; settings: Cardiomyocyte, 72 h, co-treated with 1 μM of doxorubicin, read-out: IC50 for protective effects against apoptosis
Protocol: Cardiomyocytes were prepared as described above. […] Following treatment, the samples were incubated with a CellEvent dye to indicate apoptosis-positive cells, and a second dye to identify cell nuclei.

[3] = system: Human iPSC-derived cardiomyocytes; assay: DOX-induced DNA double strand break, γH2AX immunostaining; type: cell-based; settings: Homo sapiens, Cardiomyocyte, read-out: IC50, concentration at which DOX-induced double strand break was reduced to 50%; 0.5 μM of doxorubicin, 48 hours
[4] = system: Human iPSC-derived cardiomyocytes; assay: cells; type: cell-based; settings: Cardiomyocyte, 0.5 μM of Doxorubicin, 72 hours, read-out: EC50 for rescue from DOX-induced cell death
Protocol: To measure the rescue rates from the DOX-induced cell death in cardiomyocytes, the protective effect of myricetin was directly compared with that of dexraxozane (DEX; standard of care). Human iPSC-derived cardiomyocytes were treated with 0.5 μM of Doxorubicin and increasing concentrations of myricetin (MYR, circle) or dexraxozane (DEX, square). […] Cells were imaged using INCell Analyzer2200 (GE). […] (n=3).
Next, the ability of MYR to confer cardioprotection was directly compared with that of DHM as these two compounds display distinctive property in their structures and TOPOI inhibition activity. […] Human iPSC-derived cardiomyocytes were treated with 0.5 μM of Doxorubicin and increasing concentrations of myricetin (MYR, circle) or dihydromyricetin (DHM, triangle).

[5] = system: cardiomyocytes differentiated from induced pluripotent stem cells; assay: acute toxicity on electrophysiology, MEA beat period and field potential duration (Example 23); type: cell-based; settings: at least 20 minutes; for difference in beat period or field potential duration vs control samples: lower drug concentration; for acute drug toxicity on beating: higher concentrations
Protocol: Samples were either mock-treated with 0.1% DMSO, or treated with increasing concentrations of the indicated drug for at least 20 minutes. Cardiomyocytes were treated with the hERG potassium channel blocker E4031 as a control. Following treatment, the beat period and field potential duration (FPD) were measured in each sample using the MEA.

A549 cells = assay: doxorubicin-mediated death of lung cancer cells, CellTiter-Glo (Example 22); type: cell-based; settings: co-treated with increasing concentrations of doxorubicin, 72 hours
Protocol: A549 cells (lung cancer) were cultured for 1 day before performing experiments. […] XLFit was used for curve fitting.

MDA-MB-231 cells = settings: co-treated with increasing concentrations of doxorubicin, 72 hours
[6] = system: cardiomyocytes differentiated from induced pluripotent stem cells; assay: long term toxicity on electrophysiology, active electrodes (Example 24); type: cell-based; settings: various concentrations, at least 5 days
Protocol: Samples were either mock-treated with 0.1% DMSO, or treated with various concentrations of the indicated drug. Following treatment, the percentage of active electrodes in each sample was measured for at least 5 days. Percentage of active electrodes was quantified and graphed in a time course.

[7] = Homo sapiens, iPSC-CM, read-out: iPSC-CM protection EC50
[8] = Homo sapiens, iPSC-CM, read-out: iPSC-CM protection Max Effect (%)
[9] = even at extreme concentrations (>200 μM)

T1 sequence (Q02880 whole entry): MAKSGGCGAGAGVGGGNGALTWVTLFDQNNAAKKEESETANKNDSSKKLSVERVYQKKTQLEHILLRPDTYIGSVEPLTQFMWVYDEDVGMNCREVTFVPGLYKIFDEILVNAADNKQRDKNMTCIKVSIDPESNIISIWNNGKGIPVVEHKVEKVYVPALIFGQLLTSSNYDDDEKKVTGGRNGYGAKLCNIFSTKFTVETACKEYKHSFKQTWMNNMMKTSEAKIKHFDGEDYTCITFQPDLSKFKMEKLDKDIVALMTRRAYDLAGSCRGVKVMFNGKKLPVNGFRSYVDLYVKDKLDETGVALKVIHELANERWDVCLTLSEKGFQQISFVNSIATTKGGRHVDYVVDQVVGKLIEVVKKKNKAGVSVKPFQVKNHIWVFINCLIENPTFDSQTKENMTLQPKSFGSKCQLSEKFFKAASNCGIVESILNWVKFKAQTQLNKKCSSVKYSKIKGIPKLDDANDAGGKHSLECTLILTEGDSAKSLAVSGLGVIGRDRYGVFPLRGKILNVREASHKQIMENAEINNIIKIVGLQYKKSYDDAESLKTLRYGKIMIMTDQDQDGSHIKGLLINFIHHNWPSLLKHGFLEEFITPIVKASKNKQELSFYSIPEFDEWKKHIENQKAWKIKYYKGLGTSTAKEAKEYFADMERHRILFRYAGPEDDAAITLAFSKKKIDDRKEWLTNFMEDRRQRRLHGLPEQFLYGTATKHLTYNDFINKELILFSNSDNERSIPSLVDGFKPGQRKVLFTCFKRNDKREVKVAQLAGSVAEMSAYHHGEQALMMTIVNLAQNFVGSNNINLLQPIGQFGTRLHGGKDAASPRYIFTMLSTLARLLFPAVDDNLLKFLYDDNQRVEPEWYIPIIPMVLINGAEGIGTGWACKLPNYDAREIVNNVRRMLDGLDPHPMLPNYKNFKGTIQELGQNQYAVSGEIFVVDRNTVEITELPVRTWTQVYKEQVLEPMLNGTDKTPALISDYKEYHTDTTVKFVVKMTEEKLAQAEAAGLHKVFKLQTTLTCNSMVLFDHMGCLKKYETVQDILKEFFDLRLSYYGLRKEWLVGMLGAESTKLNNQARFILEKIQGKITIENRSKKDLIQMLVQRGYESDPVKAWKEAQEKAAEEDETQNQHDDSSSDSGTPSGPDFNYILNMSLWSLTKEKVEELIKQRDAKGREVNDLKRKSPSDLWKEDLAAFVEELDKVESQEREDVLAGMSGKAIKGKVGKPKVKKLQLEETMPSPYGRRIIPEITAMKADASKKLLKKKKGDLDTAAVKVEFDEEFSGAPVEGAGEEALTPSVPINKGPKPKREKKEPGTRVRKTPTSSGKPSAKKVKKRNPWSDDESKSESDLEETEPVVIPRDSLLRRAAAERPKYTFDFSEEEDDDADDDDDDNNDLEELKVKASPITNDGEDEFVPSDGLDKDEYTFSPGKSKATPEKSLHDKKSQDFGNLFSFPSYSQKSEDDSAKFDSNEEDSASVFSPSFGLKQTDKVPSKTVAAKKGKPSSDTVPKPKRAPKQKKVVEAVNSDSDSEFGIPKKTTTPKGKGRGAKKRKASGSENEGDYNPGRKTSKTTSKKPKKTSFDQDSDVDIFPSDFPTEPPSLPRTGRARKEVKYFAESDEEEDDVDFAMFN
T2 sequence (P11388 whole entry): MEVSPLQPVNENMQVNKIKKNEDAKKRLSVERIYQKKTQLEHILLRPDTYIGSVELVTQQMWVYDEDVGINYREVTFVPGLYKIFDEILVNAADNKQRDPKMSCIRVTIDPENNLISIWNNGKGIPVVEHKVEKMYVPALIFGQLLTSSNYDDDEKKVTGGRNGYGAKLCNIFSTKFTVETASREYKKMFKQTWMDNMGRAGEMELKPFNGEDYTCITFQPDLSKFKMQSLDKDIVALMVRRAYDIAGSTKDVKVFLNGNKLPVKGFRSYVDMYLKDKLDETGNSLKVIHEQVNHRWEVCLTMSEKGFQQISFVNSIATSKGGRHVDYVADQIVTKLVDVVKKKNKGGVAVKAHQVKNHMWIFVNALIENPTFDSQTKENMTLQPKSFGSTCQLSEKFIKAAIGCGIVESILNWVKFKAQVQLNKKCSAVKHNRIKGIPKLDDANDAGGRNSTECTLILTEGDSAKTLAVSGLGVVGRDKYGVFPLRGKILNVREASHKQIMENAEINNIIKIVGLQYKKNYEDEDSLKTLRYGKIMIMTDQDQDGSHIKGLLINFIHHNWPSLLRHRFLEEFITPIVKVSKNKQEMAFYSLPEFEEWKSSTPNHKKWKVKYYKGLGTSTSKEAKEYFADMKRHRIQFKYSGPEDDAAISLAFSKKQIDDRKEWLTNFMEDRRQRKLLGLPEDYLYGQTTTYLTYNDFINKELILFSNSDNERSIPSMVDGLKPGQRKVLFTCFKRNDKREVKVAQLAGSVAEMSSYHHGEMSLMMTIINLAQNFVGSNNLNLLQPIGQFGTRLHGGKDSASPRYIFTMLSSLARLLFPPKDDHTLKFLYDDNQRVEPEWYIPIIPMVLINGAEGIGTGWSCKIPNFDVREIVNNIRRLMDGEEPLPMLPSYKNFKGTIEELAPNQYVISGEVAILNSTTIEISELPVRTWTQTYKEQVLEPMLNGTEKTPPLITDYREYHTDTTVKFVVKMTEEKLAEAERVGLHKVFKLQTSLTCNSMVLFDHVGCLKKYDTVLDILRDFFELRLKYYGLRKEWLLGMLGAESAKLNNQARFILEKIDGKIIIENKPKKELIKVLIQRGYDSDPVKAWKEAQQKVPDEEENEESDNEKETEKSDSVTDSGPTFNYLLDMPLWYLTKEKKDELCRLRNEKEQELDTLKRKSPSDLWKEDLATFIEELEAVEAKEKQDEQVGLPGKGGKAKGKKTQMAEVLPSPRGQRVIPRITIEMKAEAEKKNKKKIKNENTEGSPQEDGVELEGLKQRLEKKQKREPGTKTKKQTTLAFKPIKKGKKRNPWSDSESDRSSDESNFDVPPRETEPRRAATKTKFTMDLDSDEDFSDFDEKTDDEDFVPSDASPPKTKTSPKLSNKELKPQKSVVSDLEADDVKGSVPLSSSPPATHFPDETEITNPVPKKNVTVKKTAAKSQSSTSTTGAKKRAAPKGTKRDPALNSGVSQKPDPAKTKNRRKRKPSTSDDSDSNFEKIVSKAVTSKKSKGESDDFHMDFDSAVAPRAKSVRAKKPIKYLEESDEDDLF

Structure (SMILES): O=c1cc(-c2cc(O)c(O)c(O)c2)oc2ccccc12 [Compound 8, 3′,4′,5′-trihydroxyflavone]
- TOPIIβ Inhibition (TOPOIIβ): −
- TOPIIα Inhibition (TOPOIIα): −
- Rescue [1]: +
- EC50 [1, 7]: 43 µM
- Emax [1, 8]: 64%
- Toxicity (cardiomyocytes): −

Structure (SMILES): O=C1c2c(O)cc(O)cc2O[C@H](c2cc(O)c(O)c(O)c2)[C@H]1O [dihydromyricetin]
- TOPOIIβ enzymatic activity inhibition (TOPOIIβ; [9]): did not inhibit
- IC50 [2]: 40.5 µM
- TOPOIIα enzymatic activity inhibition (TOPOIIα; [9]): did not inhibit
- IC50 [3]: 11.3 µM
- EC50 [4]: 14 µM

Structure (SMILES): O=c1c(O)c(-c2cc(O)c(O)c(O)c2)oc2cc(O)ccc12 [Compound 2, 3,7,3′,4′,5′-pentahydroxyflavone]
- TOPOIIβ inhibition, in words (TOPOIIβ): high level of inhibition
- TOPOIIα inhibition, in words (TOPOIIα): high level of inhibition
- EC50 ([1]; Homo sapiens, Cardiomyocyte, approximate, read-out: EC50 for cardioprotection): 10 to 20 µM
- EC50 [1, 7]: 12.6 µM
- Emax [1, 8]: 64%
- Toxicity (cardiomyocytes): −

Structure (SMILES): O=c1cc(-c2cc(O)c(O)c(O)c2)oc2cc(O)ccc12 [Compound 6, 7,3′4′,5′-tetrahydroxyflavone]
- TOPIIβ Inhibition (TOPOIIβ): −
- TOPOIIβ inhibition, in words (TOPOIIβ): did not inhibit TOPOII enzymes
- TOPIIα Inhibition (TOPOIIα): −
- TOPOIIα inhibition, in words (TOPOIIα): did not inhibit TOPOII enzymes
- EC50 [1, 7]: 17.1 µM
- Emax [1, 8]: 71%
- cardioprotection, in words [1]: displayed cardioprotection
- Toxicity (cardiomyocytes): −

Structure (SMILES): O=c1c(O)c(-c2ccccc2)oc2cc(O)cc(O)c12 [3,5,7-trihydroxyflavone]
- TOPOIIβ inhibition, in words (TOPOIIβ): neither cardioprotection nor TOPOII inhibition
- TOPOIIα inhibition, in words (TOPOIIα): neither cardioprotection nor TOPOII inhibition
- cardioprotection, in words [1]: neither cardioprotection nor TOPOII inhibition
- cytotoxicity, in words (cardiomyocytes): generalized cytotoxicity

Structure (SMILES): O=c1ccoc2ccccc12 [Compound 29, chromone]
- Rescue [1]: −
- Emax ([1]; Homo sapiens, iPSC-CM, initial screen at 10 μM or 100 μM, read-out: iPSC-CM protection Max Effect (%), class symbol): < 30%
- Toxicity (cardiomyocytes): −

Structure (SMILES): CC(=O)N(O)CCCCCNC(=O)CCC(=O)N(O)CCCCCNC(=O)CCC(=O)N(O)CCCCCN [deferoxamine]
- difference in beat period or field potential duration vs control samples [5]: no appreciable difference

Structure (SMILES): O=c1cc(-c2cc(O)c(O)c(O)c2)oc2cc(O)cc(O)c12 [Compound 3, 5,7,3′,4′,5′-pentahydroxyflavone]
- TOPOIIβ inhibition, in words (TOPOIIβ): displayed cardioprotection and TOPOII inhibition
- TOPOIIα inhibition, in words (TOPOIIα): displayed cardioprotection and TOPOII inhibition
- EC50 [1, 7]: 17.2 µM
- Emax [1, 8]: 56%
- cardioprotection, in words [1]: displayed cardioprotection
- toxic effects at concentrations less than 100 μM (cardiomyocytes): some toxic effects
- cytotoxicity, in words (cardiomyocytes): low level of cytotoxicity

Structure (SMILES): C[C@@H]1O[C@@H](Oc2c(-c3cc(O)c(O)c(O)c3)oc3cc(O)cc(O)c3c2=O)[C@H](O)[C@H](O)[C@H]1O [myricitrin]
- IC50 [2]: 38.5 µM

Structure (SMILES): O=c1c(O)c(-c2ccc(O)c(O)c2)oc2cc(O)cc(O)c12 [Compound 4, 3,5,7,3′,4′-pentahydroxyflavone]
- TOPOIIβ inhibition, in words (TOPOIIβ): exhibited TOPOII inhibition
- TOPOIIα inhibition, in words (TOPOIIα): exhibited TOPOII inhibition
- EC50 [1, 7]: 20.5 µM
- Emax [1, 8]: 58%
- cardioprotection, in words [1]: conferred cardioprotection
- cytotoxicity, in words (cardiomyocytes): high level of general cytoxicity

Structure (SMILES): O=c1ccoc2cc(O)ccc12 [Compound 7-hydroxy-4-chromone, 7-hydroxy-4-chromone]
- TOPOIIβ inhibition, in words (TOPOIIβ): Nor did either compound confer TOPOIIβ or a inhibition
- TOPOIIα inhibition, in words (TOPOIIα): Nor did either compound confer TOPOIIβ or a inhibition
- cardioprotection, in words [1]: no positive effect
- cytotoxicity, in words (cardiomyocytes): high level of cytotoxicity

Structure (SMILES): CC(=O)N[C@@H](CS)C(=O)O [N-acetyl cysteine]
- difference in the percentage of cell death vs doxorubicin without protective agent (A549 cells): no significant difference
- difference in the percentage of cell death vs doxorubicin without protective agent (MDA-MB-231 cells): no significant difference
- difference in beat period or field potential duration vs control samples [5]: no appreciable difference

Structure (SMILES): Nc1c(Br)cc(Br)cc1CN[C@H]1CC[C@H](O)CC1 [ambroxol]
- difference in the percentage of cell death vs doxorubicin without protective agent (A549 cells): no significant difference
- difference in the percentage of cell death vs doxorubicin without protective agent (MDA-MB-231 cells): no significant difference
- decrease in the number of active electrodes relative to the mock-treated sample [6]: no observable decrease
- difference in beat period or field potential duration vs control samples [5]: no appreciable difference

Structure (SMILES): O=c1c(O)c(-c2ccc(O)cc2)oc2cc(O)ccc12 [Compound 10, 3,7,4′-trihydroxyflavone]
- TOPIIβ Inhibition (TOPOIIβ): −
- TOPIIα Inhibition (TOPOIIα): −
- Rescue [1]: +
- EC50 [1, 7]: 3.26 µM
- Emax [1, 8]: 27%
- toxic effects at concentrations less than 100 μM (cardiomyocytes): exhibited toxic effects

Structure (SMILES): C[C@H](CCC(=O)O)[C@H]1CC[C@H]2[C@@H]3[C@H](O)C[C@@H]4C[C@H](O)CC[C@]4(C)[C@H]3CC[C@]12C [chenodeoxycholic acid]
- acute drug toxicity on beating [5]: beating cessation
- difference in beat period or field potential duration vs control samples [5]: no appreciable difference

Structure (SMILES): Nc1ccc(O)c(C(=O)O)c1 [mesalamine]
- difference in the percentage of cell death vs doxorubicin without protective agent (A549 cells): no significant difference
- difference in the percentage of cell death vs doxorubicin without protective agent (MDA-MB-231 cells): no significant difference
- decrease in the number of active electrodes relative to the mock-treated sample [6]: no observable decrease

Structure (SMILES): O=C1C[C@@H](c2ccc(O)cc2)Oc2cc(O)cc(O)c21 [naringenin]
- acute drug toxicity on beating [5]: beating cessation
- difference in beat period or field potential duration vs control samples [5]: no appreciable difference

Structure (SMILES): COc1c(O)cc(-c2oc3cc(O)cc(O)c3c(=O)c2O)cc1O [Compound 32, 4′-O-methylmyricetin]
- TOPIIβ Inhibition (TOPOIIβ): −
- TOPIIα Inhibition (TOPOIIα): −
- Rescue [1]: +
- iPSC-CM protection Max Effect (%) [1]: 68%
- EC50 ([1]; read-out: iPSC-CM protection EC50): 48.6 µM

Structure (SMILES): COc1cc(-c2oc3cc(O)cc(O)c3c(=O)c2O)cc(OC)c1O [Compound 33, 3′,5′-O-dimethylmyricetin]
- TOPIIβ Inhibition (TOPOIIβ): −
- TOPIIα Inhibition (TOPOIIα): −
- Rescue [1]: −
- iPSC-CM protection Max Effect (%), class symbol ([1]; initial screen at 10 μM or 100 μM): † (Compounds failed to exhibit >30% protection Max Effect at 10 μM or 100 μM on initial screen.)

Structure (SMILES): O=c1cc(-c2ccc(O)c(O)c2)oc2cc(O)ccc12 [Compound 11, 7,3′,4′-trihydroxyflavone]
- TOPIIβ Inhibition (TOPOIIβ): −
- TOPIIα Inhibition (TOPOIIα): −
- Rescue [1]: +
- EC50 [1, 7]: 6.25 µM
- Emax [1, 8]: 24%
